Among the data in US11174252B2, “Heterocyclic compounds as kinase inhibitors” (priority 2018, dated 2021) are IC50 and inhibition values, retold here.

The subject of one experiment is DU4475. Briefly: Cancer cell proliferation assay, single agent. It is filed as cell-based. The conditions noted are these: Homo sapiens.
For the next experiment, the target named is CDK1 (cyclin B) (Homo sapiens (Human), UniProt P06493). Briefly: Z'-LYTE kinase assay. It is filed as biochemical. From the text: The following equations were used for Z′-LYTE™ Screening Assay Data Analysis.
The test system of a further experiment is MCF-7. Briefly: Cancer cell proliferation assay, single agent. Format: cell-based. The conditions noted are these: Homo sapiens.
For a further experiment, the system named is BT-549. Briefly: Cancer cell proliferation assay, single agent. It is filed as cell-based. The conditions noted are these: Homo sapiens.
The target in a further experiment is CDK7 (cyclin H) (Homo sapiens (Human), UniProt P50613). Briefly: Adapta Assay. Format: biochemical. From the text:
The following equations were used for Adapta™ Assay Data Analysis.

In another experiment the target is CDK2 (cyclin A) (Homo sapiens (Human), UniProt P24941). Briefly: Z'-LYTE kinase assay. Format: biochemical. The procedure:
IC50 values of compounds against CDK2 (cyclin A) were determined by Z'-LYTETM. […] The following equations were used for Z'-LYTETM Screening Assay Data Analysis.

In the next experiment the target is PI3Kδ kinase (Homo sapiens (Human), UniProt O00329). The experiment can be described thus: PI3Kδ kinase ADP-Glo assay (Reaction Biology Corporation). The settings on record: read-out: PI3Kδ IC50. For orientation: ADP-Glo turns the ADP formed in a reaction into a luminescent signal.
In a further experiment the target is FMS kinase (Homo sapiens (Human), UniProt P07333). The experiment can be described thus: LanthaScreen kinase assay (ATP, fluorescent-PolyGT substrate, TR-FRET). It is filed as biochemical.
The target of the next experiment is CDK5 (p25) (Homo sapiens (Human), UniProt Q00535). The experiment can be described thus: Z'-LYTE kinase assay. It is filed as biochemical. From the text: The following equations were used for Z'-LYTETM Screening Assay Data Analysis.
The target in the next experiment is CDK9 (cyclin K) (Homo sapiens (Human), UniProt P50750). The experiment can be described thus: LanthaScreen Eu Kinase Binding Assay. The conditions noted are these: read-out: CDK9/K IC50. For orientation: TR-FRET usually uses a lanthanide donor and a delayed reading to cut background.
A further experiment addresses CDK2 (cyclin E1) (Homo sapiens (Human), UniProt P24941). The experiment can be described thus: LanthaScreen Eu Kinase Binding Assay. The conditions noted are these: read-out: CDK2/E IC50.
A further experiment deals with HCT-116. Briefly: Cancer cell proliferation assay, single agent. Format: cell-based. The conditions noted are these: Homo sapiens, Treatment Duration 72 h, read-out: IC50 HCT116.
For a further experiment, the system named is A549. Briefly: Cancer cell proliferation assay, single agent. It is filed as cell-based. The conditions noted are these: Homo sapiens.
In experiment [1] the test system is pRb (Ser780 phosphorylation state of RB1) in MCF-7 cells. The experiment can be described thus: Determination of pRb levels (Ser780 phosphorylation of RB1, ELISA) in MCF-7 cells. The conditions noted are these: Homo sapiens, 24 h; for inhibition at 0.01 µM: MCF7, 0.01 μM; for inhibition at 0.1 µM: MCF7, 0.1 μM; for inhibition at 1 µM: MCF7, 1 μM. Format: cell-based. As for the experimental part:
[…] of the retinoblastoma protein (pRb) by cyclin D:Cdk4/6 complexes results in […] pRb, which is a clinically relevant biomarker associated with CDK4 or CDK6 inhibition. As a confirmatory measure of functional activity of CDK4/6, the Ser780 phosphorylation state of RB1 was assessed. MCF-7 cells were plated at 2.5×10^5 to 3.0×10^6 cells/well in 6-well cell-culture plates and incubated at 37° C. for 24 h in MEM medium supplemented with 10% FBS. Cells were treated for 24 h with a medium containing test compound at various concentrations (e.g., 0.01, 0.1, 1 μM) or with DMSO (≤1%) in duplicate. After incubation period, the media was removed, and cells were rinsed once with ice-cold PBS and lysed with 0.2 mL of Cell Lysis Buffer containing 1 mM PMSF and Protease Inhibitor. Protein concentration was estimated following Bradford method. The lysis and the pRB measurements were performed following the manufacturer's ELISA kit protocols and buffers (Cell Signaling Technology, Cat. No.: 13016C). pRb inhibition of test compounds were calculated as percentage of vehicle control.

The test system of the next experiment is ZR-75-30. The experiment can be described thus: Cancer cell proliferation assay, single agent. It is filed as cell-based. The conditions noted are these: Homo sapiens, Treatment Duration 24 h.
The test system of a further experiment is Hs-578T. The experiment can be described thus: Cancer cell proliferation assay, single agent. The settings on record: Homo sapiens, Treatment Duration 24 h. Format: cell-based.
A further experiment concerns the target CDK6 (Homo sapiens (Human), UniProt Q00534). Briefly: biochemical. It is filed as biochemical.
A further experiment concerns the target CDK4 (Homo sapiens (Human), UniProt P11802). Briefly: In vitro kinase inhibition, luminescence (ADP-Glo) with retinoblastoma substrate. It is filed as biochemical.
Where [2] appears, read: DU-4475, DU4475 cells, treated for 24-168 hours, read-out: IC50 (nM) DU4475.
The mark [3] stands for this setting: MCF7, MCF-7 cells, treated for 24-168 hours, read-out: IC50 (nM) MCF-7.
Setting [4] is: DU-4475, 168 h, read-out: IC50 DU4475.
Setting [5] is: BT-549, 24 h, read-out: IC50 BT-549.
Setting [6] is: A549, 72 h, read-out: IC50 A549.
Setting [7] is: A549 cells, treated for 24-168 hours, read-out: IC50 (nM) A549.

Structures can show the parent of a compound that is named as a salt. Where two headings read alike, the source gives them in different places. Bounds are passed on as bounds.

Sequence of CDK1 (cyclin B) (P06493 whole entry): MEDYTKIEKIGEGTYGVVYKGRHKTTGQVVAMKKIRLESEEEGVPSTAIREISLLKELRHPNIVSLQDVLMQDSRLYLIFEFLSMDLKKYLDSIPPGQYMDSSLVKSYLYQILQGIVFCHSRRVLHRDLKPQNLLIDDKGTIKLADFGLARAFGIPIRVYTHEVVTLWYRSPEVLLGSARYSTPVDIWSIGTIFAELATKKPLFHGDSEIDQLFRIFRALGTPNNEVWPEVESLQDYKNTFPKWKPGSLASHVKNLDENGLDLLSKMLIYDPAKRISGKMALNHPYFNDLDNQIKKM
Sequence of CDK1 (cyclin B) (P14635 whole entry partner): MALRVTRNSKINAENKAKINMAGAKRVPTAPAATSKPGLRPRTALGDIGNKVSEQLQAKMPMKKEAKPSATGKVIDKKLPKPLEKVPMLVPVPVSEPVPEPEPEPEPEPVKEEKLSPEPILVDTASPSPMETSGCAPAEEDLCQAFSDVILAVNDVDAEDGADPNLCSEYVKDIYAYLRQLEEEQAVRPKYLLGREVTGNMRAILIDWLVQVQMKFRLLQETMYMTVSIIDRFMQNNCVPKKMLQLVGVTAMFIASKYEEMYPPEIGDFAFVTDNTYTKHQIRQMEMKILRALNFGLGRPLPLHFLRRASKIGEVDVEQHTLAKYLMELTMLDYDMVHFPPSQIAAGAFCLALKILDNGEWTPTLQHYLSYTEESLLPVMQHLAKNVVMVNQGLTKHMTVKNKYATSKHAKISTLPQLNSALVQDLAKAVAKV
Sequence of CDK4 (P11802 whole entry): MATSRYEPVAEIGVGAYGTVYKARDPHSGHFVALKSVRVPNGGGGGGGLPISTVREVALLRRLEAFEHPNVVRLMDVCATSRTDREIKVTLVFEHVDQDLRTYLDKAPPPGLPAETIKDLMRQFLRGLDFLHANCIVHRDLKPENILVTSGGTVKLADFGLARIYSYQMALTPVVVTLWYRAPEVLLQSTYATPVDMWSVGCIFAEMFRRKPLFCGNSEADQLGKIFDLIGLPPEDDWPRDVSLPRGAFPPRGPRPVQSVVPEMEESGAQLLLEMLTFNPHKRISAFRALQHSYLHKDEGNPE
Sequence of CDK4 (P24385 whole entry partner): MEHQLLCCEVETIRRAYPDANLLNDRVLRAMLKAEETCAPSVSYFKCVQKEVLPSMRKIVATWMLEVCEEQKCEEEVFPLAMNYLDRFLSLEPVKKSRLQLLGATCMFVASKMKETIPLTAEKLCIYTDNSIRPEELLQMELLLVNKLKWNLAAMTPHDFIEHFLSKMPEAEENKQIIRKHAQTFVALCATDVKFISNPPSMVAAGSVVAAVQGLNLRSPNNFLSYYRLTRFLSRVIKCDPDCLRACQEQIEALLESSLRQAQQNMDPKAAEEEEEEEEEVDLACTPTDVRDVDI
Sequence of CDK5 (p25) (Q00535 whole entry): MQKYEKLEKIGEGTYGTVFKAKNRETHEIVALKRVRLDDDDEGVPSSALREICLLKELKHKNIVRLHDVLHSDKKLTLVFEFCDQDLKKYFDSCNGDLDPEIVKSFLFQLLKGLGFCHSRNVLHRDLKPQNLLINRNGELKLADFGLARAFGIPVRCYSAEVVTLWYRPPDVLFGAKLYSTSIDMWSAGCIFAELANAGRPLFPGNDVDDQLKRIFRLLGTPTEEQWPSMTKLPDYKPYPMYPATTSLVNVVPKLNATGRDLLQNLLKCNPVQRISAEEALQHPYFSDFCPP
Sequence of CDK5 (p25) (Q15078 99-307 partner): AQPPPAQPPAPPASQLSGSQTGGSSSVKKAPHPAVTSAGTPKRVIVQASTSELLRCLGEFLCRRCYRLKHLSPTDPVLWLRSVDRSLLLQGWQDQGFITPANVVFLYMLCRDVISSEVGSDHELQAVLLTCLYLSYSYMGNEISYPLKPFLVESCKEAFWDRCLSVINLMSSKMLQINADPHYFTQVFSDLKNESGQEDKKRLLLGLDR
Sequence of FMS kinase (P07333 20-972): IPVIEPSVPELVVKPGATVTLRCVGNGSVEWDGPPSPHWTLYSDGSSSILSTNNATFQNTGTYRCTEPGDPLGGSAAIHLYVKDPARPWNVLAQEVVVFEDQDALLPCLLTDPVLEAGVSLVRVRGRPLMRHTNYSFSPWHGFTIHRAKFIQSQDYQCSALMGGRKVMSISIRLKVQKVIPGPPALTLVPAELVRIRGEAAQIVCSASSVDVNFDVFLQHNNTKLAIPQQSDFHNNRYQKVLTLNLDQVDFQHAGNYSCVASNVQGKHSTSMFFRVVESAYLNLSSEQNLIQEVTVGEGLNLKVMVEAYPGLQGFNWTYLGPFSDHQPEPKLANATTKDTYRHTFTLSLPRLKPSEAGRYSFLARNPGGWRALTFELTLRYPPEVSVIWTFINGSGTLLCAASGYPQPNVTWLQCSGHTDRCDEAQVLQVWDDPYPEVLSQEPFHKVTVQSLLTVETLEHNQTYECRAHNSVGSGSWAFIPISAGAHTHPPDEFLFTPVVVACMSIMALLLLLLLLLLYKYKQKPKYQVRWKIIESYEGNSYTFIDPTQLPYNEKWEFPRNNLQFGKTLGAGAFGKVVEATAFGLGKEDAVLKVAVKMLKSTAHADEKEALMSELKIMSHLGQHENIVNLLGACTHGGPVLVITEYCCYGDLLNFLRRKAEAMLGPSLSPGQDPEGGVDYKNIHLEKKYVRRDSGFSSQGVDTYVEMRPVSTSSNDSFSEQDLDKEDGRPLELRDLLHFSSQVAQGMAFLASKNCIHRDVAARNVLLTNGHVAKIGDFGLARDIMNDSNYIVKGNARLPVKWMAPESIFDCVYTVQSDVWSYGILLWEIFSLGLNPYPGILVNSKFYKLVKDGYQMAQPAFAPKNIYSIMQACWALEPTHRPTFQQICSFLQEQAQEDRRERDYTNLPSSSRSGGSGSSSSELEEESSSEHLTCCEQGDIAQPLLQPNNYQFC
Sequence of CDK7 (cyclin H) (P50613 whole entry): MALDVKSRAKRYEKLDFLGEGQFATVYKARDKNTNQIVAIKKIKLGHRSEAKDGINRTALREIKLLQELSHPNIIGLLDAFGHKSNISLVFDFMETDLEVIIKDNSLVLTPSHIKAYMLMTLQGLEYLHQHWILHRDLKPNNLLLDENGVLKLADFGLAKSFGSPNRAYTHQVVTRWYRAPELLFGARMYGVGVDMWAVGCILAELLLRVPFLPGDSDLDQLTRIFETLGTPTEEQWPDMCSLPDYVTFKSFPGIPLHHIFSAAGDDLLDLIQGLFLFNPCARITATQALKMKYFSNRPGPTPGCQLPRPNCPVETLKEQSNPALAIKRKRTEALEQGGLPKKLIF
Sequence of CDK7 (cyclin H) (P51946 whole entry partner): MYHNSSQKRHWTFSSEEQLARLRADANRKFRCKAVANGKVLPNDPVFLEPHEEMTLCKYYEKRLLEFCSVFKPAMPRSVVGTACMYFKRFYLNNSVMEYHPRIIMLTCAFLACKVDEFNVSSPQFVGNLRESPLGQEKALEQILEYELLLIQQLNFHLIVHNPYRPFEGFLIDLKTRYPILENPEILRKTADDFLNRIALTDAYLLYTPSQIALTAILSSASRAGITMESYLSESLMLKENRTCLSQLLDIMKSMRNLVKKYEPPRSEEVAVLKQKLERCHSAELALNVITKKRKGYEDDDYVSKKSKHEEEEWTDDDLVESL
Sequence of CDK7 (cyclin H) (P51948 whole entry partner): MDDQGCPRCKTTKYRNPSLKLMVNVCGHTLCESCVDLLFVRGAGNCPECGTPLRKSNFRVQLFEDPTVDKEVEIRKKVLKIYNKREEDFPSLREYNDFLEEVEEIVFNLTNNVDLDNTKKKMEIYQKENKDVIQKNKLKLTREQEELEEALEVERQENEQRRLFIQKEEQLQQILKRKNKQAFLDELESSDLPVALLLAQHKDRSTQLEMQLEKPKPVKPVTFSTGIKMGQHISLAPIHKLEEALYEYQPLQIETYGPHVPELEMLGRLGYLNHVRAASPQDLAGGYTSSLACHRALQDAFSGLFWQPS
Sequence of CDK9 (cyclin K) (P50750 whole entry): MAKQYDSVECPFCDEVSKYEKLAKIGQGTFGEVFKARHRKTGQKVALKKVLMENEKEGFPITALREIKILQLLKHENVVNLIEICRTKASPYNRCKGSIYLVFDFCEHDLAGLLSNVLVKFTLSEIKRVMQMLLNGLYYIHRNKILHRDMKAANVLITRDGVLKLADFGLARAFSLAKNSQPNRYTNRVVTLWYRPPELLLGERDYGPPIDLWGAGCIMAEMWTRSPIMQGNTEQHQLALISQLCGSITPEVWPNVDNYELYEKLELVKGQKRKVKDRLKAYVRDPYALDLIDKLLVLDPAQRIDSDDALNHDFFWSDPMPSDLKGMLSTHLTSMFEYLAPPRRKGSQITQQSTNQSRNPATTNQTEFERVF
Sequence of CDK9 (cyclin K) (O75909 whole entry partner): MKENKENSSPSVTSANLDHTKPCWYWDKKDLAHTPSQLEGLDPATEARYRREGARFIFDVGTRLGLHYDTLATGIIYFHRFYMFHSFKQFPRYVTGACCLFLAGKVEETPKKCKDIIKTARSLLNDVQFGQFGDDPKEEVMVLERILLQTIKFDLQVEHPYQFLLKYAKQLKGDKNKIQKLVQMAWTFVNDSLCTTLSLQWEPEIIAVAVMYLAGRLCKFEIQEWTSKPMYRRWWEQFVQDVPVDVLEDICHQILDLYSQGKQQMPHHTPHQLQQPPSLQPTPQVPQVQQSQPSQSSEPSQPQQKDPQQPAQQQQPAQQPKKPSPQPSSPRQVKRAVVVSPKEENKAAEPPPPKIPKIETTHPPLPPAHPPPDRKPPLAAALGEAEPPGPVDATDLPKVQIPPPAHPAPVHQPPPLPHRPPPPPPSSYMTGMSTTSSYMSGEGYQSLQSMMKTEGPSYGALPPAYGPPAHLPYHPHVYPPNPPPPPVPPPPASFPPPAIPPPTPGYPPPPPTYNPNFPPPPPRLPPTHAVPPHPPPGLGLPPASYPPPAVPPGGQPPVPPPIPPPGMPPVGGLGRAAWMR

Take `CC(C)N1CCOc2c(F)cc(-c3nc(Nc4ccc(N5CCC(N(C)C)CC5)c(F)c4)ncc3F)cc21` [Compound 25, N-(4-(4-(dimethylamino)piperidin-1-yl)-3-fluorophenyl)-5-fluoro-4-(8-fluoro-4-isopropyl-3,4-dihydro-2H-benzo[b][1,4]oxazin-6-yl)pyrimidin-2-amine]: the IC50 in the experiment with DU4475 (setting [2]) is 46 nM; against CDK1 (cyclin B), 0.0067 µM; with MCF-7 (setting [3]), 25 nM; with BT-549 (BT-549 cells, treated for 24-168 hours, read-out: IC50 (nM) BT-549) it was under 1110 nM; on CDK7 (cyclin H), 0.145 µM; against CDK2 (cyclin A), 0.0034 µM. The IC50 was 6.1 µM on PI3Kδ kinase, 0.005 µM against FMS kinase, 0.0036 µM at CDK5 (p25) and 0.005 µM on CDK9 (cyclin K).

One may read the inhibition as the change of the read-out against control, counted positive when it falls. With `CC(C)N1CCOc2c(F)cc(-c3nc(Nc4ccc(N5CCNCC5)c(F)c4)ncc3F)cc21` [Compound 12, 5-fluoro-N-(3-fluoro-4-(piperazin-1-yl)phenyl)-4-(8-fluoro-4-isopropyl-3,4-dihydro-2H-benzo[b][1,4]oxazin-6-yl)pyrimidin-2-amine hydrochloride], the IC50 on CDK2 (cyclin E1) was 0.0072 µM; with DU4475 (setting [4]), 40 nM; with HCT-116, under 0.013 µM; at CDK1 (cyclin B), 0.0039 µM; with MCF-7 (MCF7, 72 h, read-out: IC50 MCF-7), under 10 nM; in the experiment with BT-549 (setting [5]), 230 nM. Moreover, the IC50 with A549 (setting [6]) is under 13 nM; at CDK2 (cyclin A) it was 0.0007 µM; at PI3Kδ kinase, 0.674 µM; at FMS kinase, 0.029 µM. In experiment [1], the inhibition at 0.01 µM is -5%. In experiment [1], the inhibition at 0.1 µM came out at 81%. For the same compound, the inhibition at 1 µM in experiment [1] stood at 81%.

For the compound `CC(C)N1CCOc2c(F)cc(-c3nc(Nc4ccc(N5CCC(N(C)C)CC5)cn4)ncc3F)cc21` [Compound 436, N-(5-(4-(dimethylamino)piperidin-1-yl)pyridin-2-yl)-5-fluoro-4-(8-fluoro-4-isopropyl-3,4-dihydro-2H-benzo[b][1,4]oxazin-6-yl)pyrimidin-2-amine], the IC50 in the experiment with DU4475 (setting [2]) is 383 nM; at CDK1 (cyclin B) it was 0.082 µM; with MCF-7 (setting [3]), 165 nM; in the experiment with A549 (setting [7]) it was 390 nM; at CDK7 (cyclin H), 2.36 µM; against CDK2 (cyclin A) it was 0.008 µM. The results for the IC50 against FMS kinase, against CDK5 (p25) and at CDK9 (cyclin K) were over 5 µM, 0.038 µM and 0.073 µM, respectively.

Turning to `CC(C)N1CCOc2c(F)cc(-c3nc(Nc4ccc(N5CCNCC5)cn4)ncc3F)cc21` [Compound 1, 5-fluoro-4-(8-fluoro-4-isopropyl-3,4-dihydro-2H-benzo[b][1,4]oxazin-6-yl)-N-(5-(piperazin-1-yl)pyridin-2-yl)pyrimidin-2-amine], the IC50 was 575 nM with DU4475 (setting [4]); 0.515 µM with HCT-116; 0.049 µM in the experiment with ZR-75-30; 68 nM in the experiment on MCF-7 (MCF7, Treatment Duration 72 h, read-out: IC50 MCF-7); 0.06 µM in the experiment on Hs-578T; 0.0002 µM against CDK6. The IC50 in the experiment with BT-549 (setting [5]) stood at 3200 nM; with A549 (setting [6]), 65 nM; at PI3Kδ kinase, 3.36 µM; at CDK4, 0.0002 µM; at FMS kinase, 1.33 µM. Also, the inhibition at 0.01 µM in experiment [1] stood at 77%. The inhibition at 0.1 µM in [1] turned out to be 80%. The inhibition at 1 µM in [1] is 89%.

For the compound `CC(C)N1CCOc2c(F)cc(-c3nc(Nc4ccc(C5CCN(C)CC5)nc4)ncc3F)cc21` [Compound 33, 5-fluoro-4-(8-fluoro-4-isopropyl-3,4-dihydro-2H-benzo[b][1,4]oxazin-6-yl)-N-(6-(1-methylpiperidin-4-yl)pyridin-3-yl)pyrimidin-2-amine], the IC50 in the experiment on DU4475 (DU-4475, read-out: IC50 (nM) DU4475) is 40 nM; on CDK1 (cyclin B), 0.003 µM; in the experiment on MCF-7 (setting [3]) it was under 14 nM; on CDK6, 0.0015 µM; against CDK7 (cyclin H), 0.054 µM; at CDK2 (cyclin A), 0.002 µM. The IC50 was 0.0015 µM at CDK4, 0.048 µM on FMS kinase, 0.001 µM on CDK5 (p25) and 0.002 µM on CDK9 (cyclin K).

On to `CC(C)N1CCOc2c(F)cc(-c3nc(Nc4ccc(C5CCN(C)CC5)cn4)ncc3F)cc21` [Compound 442, 5-fluoro-4-(8-fluoro-4-isopropyl-3,4-dihydro-2H-benzo[b][1,4]oxazin-6-yl)-N-(5-(1-methylpiperidin-4-yl)pyridin-2-yl)pyrimidin-2-amine], for which the IC50 in the experiment on DU4475 (setting [2]) is 503 nM; on CDK1 (cyclin B), 0.073 µM; in the experiment on MCF-7 (setting [3]), 125 nM; at CDK6 it was 0.001 µM; in the experiment with A549 (setting [7]) it was 465 nM; against CDK7 (cyclin H), 1.16 µM. Further, the IC50 is 0.007 µM on CDK2 (cyclin A); over 50 µM at PI3Kδ kinase; 0.002 µM against CDK4; 0.353 µM at FMS kinase; 0.027 µM against CDK5 (p25); 0.041 µM on CDK9 (cyclin K).
